Laboratory results published in patent US20120252037A1, “STIMULATORY AUTO-ANTIBODIES TO THE PDGF RECEPTOR AS PATHOLOGY MARKER AND THERAPEUTIC TARGET” (priority 2005, published 2012).
Where two headings read alike, the source gives them in different places. Peptide text beside a SMILES is read from it. * marks the point of attachment. Cbz = O=C(OCc1ccccc1)*

How the values were obtained:
normal human fibroblasts = assay: ROS (DCF fluorescence) in normal human fibroblasts; format: cell-based; conditions: for effect on ROS induction by SSc IgG in normal fibroblasts: FIG. 2A, pre-incubation for 2 hours (AG1478 2 μM, FT-277 20 μM, PD98059 40 μM)
Experimental: (§1) Fluorimetric determination of intracellular ROS generated by adherent fibroblasts was estimated after loading the cells with 2′,7′-dichlorofluorescein diacetate (DCFH-DA 10 μM, Molecular Probes, PoortGebouw, The Nederlands) for 15 min at 37° C. The DCF fluorescence intensity was measured by a CytoFluor plate reader (PerkinElmer, Wallac, Finland) (excitation wavelength, 485 nm; emission wavelength, 530 nm) (8). Ten measurements were made in each single well from ten distinct points and the values averaged. Each IgG sample was run in duplicate and the average has been recorded. The results are expressed as DCF fluorescence intensity calculated subtracting from the DCF fluorescence intensity of the test IgG the DCF fluorescence intensity of a negative control obtained by cell cultured without IgG. The intra-plate and the inter-plate coefficient of variation was less than 3%. The samples were recorded as positive if the SI was greater than the mean plus three standard deviations of the normal group.
In selected experiments ROS generation was evaluated after the addition of PDGF receptor tyrosine kinase inhibitor (AG 1296; 2 μM for 2 hours), Epidermal growth factor (EGF) receptor tyrosine kinase inhibitor (AG 1478; 2 μM for 2 hours), a chemical inhibitor of ERK 1/2 signalling (PD 98059; 40 μM for 2 hours), and a farnesyl protein transferase inhibitor to block Ras farnesylation (FTI-277; 20 μM for 2 hours). AG 1296, AG 1478, PD 98059 and FTI-277 were obtained from Calbiochem (San Diego, Calif.).
Fluorimetric determination of intracellular ROS generated by fibroblasts was estimated after loading the cells with DCFH-DA (10 μM) for 15 min at 37° C. before assessing DCF fluorescence level (15). Superoxide anion release was estimated using the superoxide dismutase-inhibitable cytochrome c reduction (12). H2O2 release from fibroblasts into the overlying medium was assayed using a modification of the method of Valletta and Berton (1987) (16). Oxidative activity imaging in living, transfected cells was evaluated as described (12, 17).

Ha-Ras = Ha-Ras / Ki-Ras protein levels in primary fibroblasts (immunoprecipitation, immunoblot, immunofluorescence, FACS); format: cell-based, human; conditions: for effect on Ha-Ras induction by PDGF / effect on Ha Ras levels: primary fibroblasts
Experimental: Ras proteins were immunoprecipitated from cultured fibroblasts with polyclonal anti pan Ras antibody (Santa Cruz Biotechnology, Santa Cruz, Calif.) following recommended procedures from the manufacturer.
Fibroblasts, cultured on Lab-Tek chamber glass slides (Nalge-Nunc, Ill., USA) and starved 48 h before stimulation or addition of inhibitors, were fixed 4% para-formaldheide, permeabilized by 0.1% Triton-X, and stained with a monoclonal antibody against Ha-Ras and then with a tetramethylrhodamine-isothiocyanate (TRITC) conjugated secondary antibody (Molecular Probes, NL). Slides were mounted with Vectarshield (H-100; Vector, Burlingame, Calif.) and examined using a BioRad (Hemel Hempstead, UK) microradiance confocal laser-scanning microscope equipped with argon and helium/neon lasers. Acquired images were analysed using the Laser Sharp Processing BioRad software (version 3.2). All images from different slides condition were acquired in double-blinded fashion.
Cells were grown to semiconfluency in 60 mm culture dishes. After trypsin detachment, 5×10^5 cells were suspended in 1 ml of phosphate buffered saline (PBS) and fixed overnight with 1% formaldehyde at room temperature. Next, cells were permeabilized with 0.1% Triton×100 for 40 min at 4° C., washed 4 times with 2 ml of PBS containing 2% FBS, 0.01% NaN3, 0.1% Triton×100 (buffer A), and incubated for 45 min at 4° C. with 1:50 dilution of monoclonal and polyclonal anti HaRas antibodies (Santa Cruz Biotechnology, Santa Cruz, Calif., USA). The cells were then washed twice with the same buffer and incubated for 45 min at 4° C. with Cy2-conjugated anti-mouse IgG antibodies (Amersham Pharmacia Biotech, Milano, Italia) at 1:50 dilution. Control cells were incubated with Cy2-conjugated anti mouse IgG antibodies alone. After two washes in buffer A, cells were resuspended in PBS and analyzed by flow cytometry using FACScan (BD, Heidelberg, Germany) and WinMDI software.

[1] = target: T1, PDGFR α subunit expressed by Fα cells (Homo sapiens, UniProt P16234); assay: Bio-assay for anti PDGFR autoantibodies: ROS production (DCF fluorescence) in Fα cells; format: cell-based, mouse; conditions: pre-incubation 2 μM for 2 hours
T1 construct: expressed in transfected cells; host or cells: mouse embryo fibroblasts from PDGF receptor knock-out embryos (F-/-) infected with PDGFR α (Fα cells)
T1 sequence (P16234 24-1089): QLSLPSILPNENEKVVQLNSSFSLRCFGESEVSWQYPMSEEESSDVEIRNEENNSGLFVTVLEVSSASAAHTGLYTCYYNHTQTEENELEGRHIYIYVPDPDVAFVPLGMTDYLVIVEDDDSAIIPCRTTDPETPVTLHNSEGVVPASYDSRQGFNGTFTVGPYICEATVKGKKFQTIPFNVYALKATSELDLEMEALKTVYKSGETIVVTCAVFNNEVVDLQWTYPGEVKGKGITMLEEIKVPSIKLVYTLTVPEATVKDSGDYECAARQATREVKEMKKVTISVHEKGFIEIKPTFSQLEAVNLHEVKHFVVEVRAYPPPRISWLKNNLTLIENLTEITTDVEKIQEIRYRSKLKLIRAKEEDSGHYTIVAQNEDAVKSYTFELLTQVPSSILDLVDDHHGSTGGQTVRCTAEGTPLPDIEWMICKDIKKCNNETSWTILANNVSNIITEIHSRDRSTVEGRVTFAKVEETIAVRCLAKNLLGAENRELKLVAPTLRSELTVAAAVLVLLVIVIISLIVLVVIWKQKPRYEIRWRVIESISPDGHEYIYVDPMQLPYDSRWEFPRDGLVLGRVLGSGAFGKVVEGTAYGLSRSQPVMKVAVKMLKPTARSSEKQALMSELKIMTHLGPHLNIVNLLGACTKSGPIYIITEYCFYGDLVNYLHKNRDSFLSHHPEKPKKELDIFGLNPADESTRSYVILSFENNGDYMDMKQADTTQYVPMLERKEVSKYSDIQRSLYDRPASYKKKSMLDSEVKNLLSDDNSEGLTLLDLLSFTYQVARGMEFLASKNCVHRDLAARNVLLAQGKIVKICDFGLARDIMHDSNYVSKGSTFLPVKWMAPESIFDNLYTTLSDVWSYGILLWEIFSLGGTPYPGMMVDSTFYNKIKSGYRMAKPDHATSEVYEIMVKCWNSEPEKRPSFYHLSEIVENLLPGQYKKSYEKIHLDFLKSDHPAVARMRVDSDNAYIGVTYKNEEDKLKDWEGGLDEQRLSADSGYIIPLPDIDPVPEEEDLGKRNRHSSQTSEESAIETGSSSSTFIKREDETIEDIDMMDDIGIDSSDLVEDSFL
Experimental: Patients and control serum samples were tested for the presence of PDGFR activating autoantibodies in a functional bioassay based on the production of ROS by mouse embryo fibroblasts infected with PDGFR α and/or β subunits and exposed in vitro to immunopurified IgG. Control cells were F−/− cells devoid of PDGFR. In brief, cells were plated in duplicate at a density of 30,000 cells in 1.83-cm^2 wells and incubated for 24 hours at 37° C. in 0.2 percent fetal calf serum. The cells were then washed with phosphate-buffered saline and incubated with a pre-determined amount of control or patient IgG for 15 minutes at 37° C. before ROS production determination.
as §1, with “Ten measurements were made in each single well from ten distinct points and the values averaged.” left out, “The intra-plate and the inter-plate coefficient of variation was less than 3%. The samples were recorded as positive if the SI was greater than the mean plus three standard deviations of the normal group.” left out

ERK1/2 = assay: P-ERK1/2 immunoblot in primary fibroblasts; format: cell-based, human; conditions: for effect on ERK1/2 activated by PDGF: NAC 20 mM 5 h, DPI 20 μM 1 h, FIG. 5E
Experimental: Cell culture plates were lysed with 0.3 ml of cold RIPA buffer (1×PBS, 1% Nonidet P-40, 0.5% sodium deoxycholate, 0.1% SDS, 2 mM sodium orthovanadate, 2 μg/ml aprotinin, 1 mM PMSF) and processed for immunoblotting as described (8).
Cell culture plates were lysed with 0.3 ml of cold RIPA buffer (1×PBS, 1% Nonidet P-40, 0.5% sodium deoxycholate, 0.1% SDS, 2 mM sodium orthovanadate, 2 μg/ml aprotinin, 1 mM PMSF) and processed as described (14).

SSc fibroblasts = assay: Oxidative stress-induced apoptosis in scleroderma fibroblasts; format: cell-based, human; conditions: H2O2, pre-treatment, FIG. 8C
Experimental: Normal and scleroderma fibroblasts were grown to 80-90% confluence and treated for 2 h with different concentrations of H2O2. When needed, cells were preincubated 30 min with PD 98059 (40 μmol/L).
(§2) Six hours after the removal of the stimulus, apoptosis was detected by FACS analysis using annexin V-Cy3 (Clontech, Palo Alto Calif.). Statistical analysis

PDGFR = target: T2, PDGFR (Homo sapiens, UniProt P09619); assay: Tyrosine phosphorylation of the PDGFR in normal fibroblasts; format: cell-based; conditions: FIG. 2D and data not shown
T2 construct: endogenous in cells; host or cells: normal human fibroblasts
T2 sequence (P09619 33-1106): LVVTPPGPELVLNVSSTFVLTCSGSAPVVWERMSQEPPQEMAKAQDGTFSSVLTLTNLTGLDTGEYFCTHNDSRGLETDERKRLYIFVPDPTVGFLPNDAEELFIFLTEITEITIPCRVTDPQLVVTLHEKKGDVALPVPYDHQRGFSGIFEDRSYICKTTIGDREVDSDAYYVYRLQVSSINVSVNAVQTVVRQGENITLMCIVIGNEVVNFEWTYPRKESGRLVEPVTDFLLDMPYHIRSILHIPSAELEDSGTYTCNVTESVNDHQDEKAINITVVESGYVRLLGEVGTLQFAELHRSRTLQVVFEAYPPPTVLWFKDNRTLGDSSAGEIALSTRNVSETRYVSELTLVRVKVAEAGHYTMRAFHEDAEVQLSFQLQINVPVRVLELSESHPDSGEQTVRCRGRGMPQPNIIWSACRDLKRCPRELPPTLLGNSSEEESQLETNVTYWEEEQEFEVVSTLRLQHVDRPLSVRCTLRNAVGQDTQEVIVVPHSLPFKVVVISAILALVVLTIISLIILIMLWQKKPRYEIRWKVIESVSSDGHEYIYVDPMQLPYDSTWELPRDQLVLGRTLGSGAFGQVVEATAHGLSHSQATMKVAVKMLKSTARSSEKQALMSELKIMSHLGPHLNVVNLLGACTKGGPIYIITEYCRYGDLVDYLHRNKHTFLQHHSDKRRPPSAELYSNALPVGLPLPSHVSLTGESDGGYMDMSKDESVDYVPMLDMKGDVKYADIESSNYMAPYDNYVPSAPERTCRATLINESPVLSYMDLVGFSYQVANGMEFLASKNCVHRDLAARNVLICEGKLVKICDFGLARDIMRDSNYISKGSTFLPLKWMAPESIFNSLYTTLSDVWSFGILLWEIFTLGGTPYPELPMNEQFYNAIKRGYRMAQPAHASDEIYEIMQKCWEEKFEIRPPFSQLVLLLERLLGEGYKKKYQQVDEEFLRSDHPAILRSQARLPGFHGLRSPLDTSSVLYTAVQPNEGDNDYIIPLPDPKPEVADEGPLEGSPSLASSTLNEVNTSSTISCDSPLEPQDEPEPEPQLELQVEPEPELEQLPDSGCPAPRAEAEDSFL
Experimental: Panel D. Normal human fibroblasts were stimulated with SSc IgG (200 μg/ml for 15 min), PDGF (15 ng/ml for 15 min) or grown in FCS 0.2%. Cell lysates were immunoprecipitated with a polyclonal antibody against PDGFR (subunit β) and the immunoblots were developed with a specific antibody against phosphorylated tyrosine.

[2] = tested on: Umbilical vein endothelial cells; assay: Apoptosis of umbilical vein endothelial cells (annexin V FACS); format: cell-based; conditions: overnight; SSc IgG 200 μg/ml, PDGF 15 ng/ml; FIG. 3C
Experimental: Endothelial cells will be isolated from umbilical cord. Cells were stimulated with SSc IgG (200 μg/ml), normal IgG (200 μg/ml) and PDGF (15 ng/ml) for 12 hours in the presence and in the absence of inhibitors of PDGFR and EGFR tyrosine kinase activity.
as §2

PDGF receptor = PDGF receptor level in primary fibroblast extracts (immunoblot); format: cell-based, human; conditions: independently on ERK1/2 activation; FIG. 5D
Experimental: D. PDGF induction of Ha-Ras is mediated by ERK1/2. Fibroblasts, incubated in 0.2% FCS for 48 h, were treated with the MEK inhibitors, PD98059 (40 μM) 2 h, before the treatment with PDGF (15 ng/ml).

[3] = 90 min in the presence of genistein, data not shown

COc1cc2ncnc(Nc3cccc(Cl)c3)c2cc1OC [AG1478]
effect on ROS induction by SSc IgG in normal fibroblasts (normal human fibroblasts): prevented | effect on Ha-Ras induced by SSc IgG (Ha-Ras; normal human fibroblasts, FIG. 2B, inhibitor for 2 h): slight inhibition

COc1cc2ncc(-c3ccccc3)nc2cc1OC [AG 1296]
effect on ROS induced in Fα cells incubated with SSc IgG [1]: inhibited

c1ccc2c(c1)[I+]c1ccccc1-2 [DPI, diphenylene iodonium]
effect on Ha-Ras induction by PDGF (Ha-Ras; PDGF 15 ng/ml): significantly inhibited | effect on ERK1/2 activated by PDGF (ERK1/2): sensitive

COC(=O)[C@H](CCSC)NC(=O)c1ccc(NC[C@@H](N)CS)cc1-c1ccccc1 [FTI-277]
effect on ROS induction by SSc IgG in normal fibroblasts (normal human fibroblasts): prevented

OO [H2O2]
Ha Ras induction in the presence of genistein (Ha-Ras; FIG. 6D): powerful inducer

CC(C)C[C@@H](C=O)NC(=O)[C@H](CC(C)C)NC(=O)[C@H](CC(C)C)NC(=O)OCc1ccccc1 [MG132] (Cbz-Leu-Leu-Leu-aldehyde)
effect on Ha Ras when administered with PDGF or H2O2 (Ha-Ras; FIG. 6E): not additive | effect on Ha Ras levels (Ha-Ras; FIG. 6E): induced

CC(=O)N[C@@H](CS)C(=O)O [NAC, N-acetyl-L-cysteine]
effect on Ha-Ras induction by PDGF (Ha-Ras; PDGF 15 ng/ml): significantly inhibited | effect on ERK1/2 activated by PDGF (ERK1/2): sensitive

COc1cccc(-c2cc(=O)c3ccccc3o2)c1N [PD98059]
effect on ROS induction by SSc IgG in normal fibroblasts (normal human fibroblasts): prevented | effect on induction of Ha-Ras by H2O2 (Ha-Ras; PD 98059 2 h, U0126 15 min incubation, FIGS. 6A, 6B): abolished | effect on Ha-Ras induction by PDGF (Ha-Ras; PDGF 15 ng/ml): inhibited | effect on oxidative stress-induced apoptosis (SSc fibroblasts): inhibited

N#CC(=C(/N)Sc1ccccc1N)/C(C#N)=C(\N)Sc1ccccc1N [U0126]
effect on induction of Ha-Ras by H2O2 (Ha-Ras): abolished

C[C@@H]1C[C@@H]([C@H](O)CC2CC(=O)NC(=O)C2)C(=O)[C@@H](C)C1 [cycloheximide]
effect on Ha-Ras induction by PDGF (Ha-Ras; PDGF 15 ng/ml): did not prevent

O=c1c(-c2ccc(O)cc2)coc2cc(O)cc(O)c12 [genistein]
effect on Ha-Ras induced by H2O2, longer incubation (Ha-Ras; [3]): inhibited | effect on Ha-Ras induction by PDGF (Ha-Ras; PDGF 15 ng/ml): inhibited | effect on ERK1/2 induced by H2O2, longer incubation (ERK1/2; [3]): inhibited

CC[C@@]1([C@@H]2O[C@@H]([C@H]3O[C@@](O)(CO)[C@H](C)C[C@@H]3C)C[C@@H]2C)CC[C@H]([C@]2(C)CC[C@]3(C[C@H](O)[C@@H](C)[C@@H]([C@@H](C)[C@@H](OC)[C@H](C)C(=O)O)O3)O2)O1 [monensin]
effect on Ha Ras levels (Ha-Ras; FIG. 6E): no effect

PDGF
duration of induced ROS (return to baseline) (normal human fibroblasts; discussion, cells not given): 15 to 30 min | half-life of Ha-Ras protein induced by PDGF (Ha-Ras; estimated from several experiments): approximately 40 min | Ki-Ras decay time (Ha-Ras; of PDGF stimulation, FIG. 4A): 3 h | time after stimulation at which Ha-Ras decreased to the initial levels (Ha-Ras; primary human fibroblasts, growth factor still present): 120 min | PDGF stimulation time sufficient to induce Ha-Ras protein (Ha-Ras; quiescent primary human fibroblasts, PDGF 15 ng/ml): 15 min | duration of PDGFR tyrosine phosphorylation (PDGFR): 15 min | induction of endothelial cell apoptosis [2]: unable to induce apoptosis | PDGF receptor level (PDGF receptor): down-regulated

cyclodextrin
effect on Ha-Ras induction by PDGF (Ha-Ras; PDGF 15 ng/ml): did not abolish
